Patent US20210380548A1, “Fused [1,2,4]Thiadiazine Derivatives Which Act as KAT Inhibitors of the MYST Family” (CTxT Pty Limited, priority 2017, published 2021)
pIC50: −log10 of the molar value.

Key:
TIP60-KAT5 [1] = biological target: T1, TIP60-KAT5 (Homo sapiens, UniProt Q92993); test: Acetyltransferase biochemical assay (AlphaScreen), KAT5; conditions: Table 1 (TIP60-KAT5); 0.4 μM Acetyl coenzyme A, histone H4, 10 nM enzyme
T1 construct: encoding amino acid residues 2 to 461 (Uniprot Q92993-2) of human KAT5 isoform; made in house; host or cells: E. coli BL21 DE3

MOZ-KAT6A [2] = biological target: T2, MOZ-KAT6A (Homo sapiens, UniProt Q92794, A567V); test: Acetyltransferase biochemical assay (AlphaScreen), KAT6A; conditions: Table 2 (MOZ-KAT6A); 10 μM Acetyl coenzyme A, histone H3.1, 5 nM enzyme
T2 construct: encoding amino acid residues 507 to 778 (Uniprot Q92794-1) of human KAT6A; made in house; host or cells: E. coli BL21 DE3

HBO-KAT7 [3] = biological target: T3, HBO-KAT7 (Homo sapiens, UniProt O95251); test: Acetyltransferase biochemical assay (AlphaScreen), KAT7; conditions: Table 3 (HBO-KAT7); 0.4 μM Acetyl coenzyme A, histone H3.1, 40 nM enzyme
T3 construct: encoding amino acid residues 325 to 611 (Uniprot 095251-1) of human KAT7; made in house; host or cells: E. coli BL21 DE3 RIL

[4] = system: histone H3K14 acetylation (HBO1 mediated) in U2OS cells; test: Histone H3 Lysine 14 Acetylation Biomarker Assay (96 well, U2OS); format: cell-based; conditions: Table 6, H3K14ac, 24 hours incubation, serum free medium
Method: Compounds may be tested for their ability to inhibit acetylation of the histone H3K14 marker (which is HBO1 mediated) in the following assay:
(§1) The cell line U2OS was seeded at a density of 12,000 cells per well in 96 well optical quality tissue culture plates in RPMI medium and 10% foetal bovine serum, and allowed to adhere for 24 hours under standard culture conditions (37 degree Celsius, 5% CO2). At the end of this period the cells were washed with serum free medium. Compound dilutions prepared in DMSO were added to the serum free medium, with negative control wells reserved for treatment with DMSO only and positive controls receiving a potent inhibitor compound (e.g. Example 36 in WO2016/198507) at 10 μM concentration. After incubation for 24 hours, the cells were fixed with 3.7% formaldehyde in PBS for 20 minutes at room temperature, washed with phosphate buffer saline containing 0.1% Tween 20 and blocked with Odyssey blocking buffer (LI-COR, Lincoln, Nebr.) containing 0.1% TritonX100. Anti-H3K14ac specific antibody (Cell Signalling Technologies) in Odyssey blocking buffer containing 0.1% Tween 20 was added and incubated for 14 hours at 4 degree Celsius. After washing, a secondary antibody labelled with Alexa647 dye (LifeTechnologies) and Hoechst 33342 (1 μg/mL, SigmaAldrich) were added for 1 hour incubation. Plates were washed and read on a PerkinElmer Phenix high content imaging platform. Using a Columbus image analysis pipeline, individual nuclei were located by Hoechst 33342 stain and the acetylation level was calculated from the Alexa647-related intensity in the same area. The resulting mean intensity per cell was directly converted to percent inhibition relative to controls on the same plate and the data fitted against a four-parameter logistic model to determine the 50% inhibitory concentration (IC50).

[5] = system: histone H2A.Z Lysine 7 acetylation (TIP60 mediated) in U2OS cells; test: H2A.Z Lysine 7 Acetylation Biomarker Assay (96 well, U2OS); format: cell-based; conditions: Table 7, H2A.Z K7ac, 24 hours incubation, serum free medium
Method: To discover a global TIP60/KAT5 cellular biomarker useful for monitoring PD responses of TIP60 inhibition in vitro and in vivo, various histone modifications were assessed for TIP60 dependence through genetic (TIP60 siRNA and CRISPR/Cas9) or TIP60 pharmacological inhibition. This analysis clearly identified acetylation of the histone variant H2A.Z at Lysine 7 (H2A.ZK7ac) as a global histone mark which is TIP60-dependent in both human and mouse cells. To a lesser extent, TIP60 also acetylated lysine 4 and 11 of H2A.Z.
Compounds may be tested for their ability to inhibit the histone H2A.Z Lysine 7 acetylation biomarker (which is TIP60 mediated) in the following assay:
as §1, with “of 9,000” for “of 12,000”, “Example 146)” for “Example 36 in WO2016/198507)”, “at 20” for “at 10”, “TritonX100. Anti-H2A.Z K7ac” for “TritonX100. Anti-H3K14ac”, “antibody (Abcam)” for “antibody (Cell Signalling Technologies)”, “33342 (10 μM,” for “33342 (1 μg/mL,”

MOZ-KAT6A [6] = biological target: T2, MOZ-KAT6A; test: Revised Acetyltransferase Biochemical Assay, KAT6A; conditions: Table 8 (MOZ-KAT6A), 1 μM Acetyl coenzyme A
HBO-KAT7 [7] = biological target: T3, HBO-KAT7; test: Revised Acetyltransferase Biochemical Assay, KAT7; conditions: Table 9 (HBO-KAT7), 1 μM Acetyl coenzyme A
TIP60-KAT5 [8] = biological target: T1, TIP60-KAT5; test: Revised Acetyltransferase Biochemical Assay, KAT5; conditions: 10 nM KAT5, 1 μM AcCoA, 100 nM histone H4, 90 min
QKF-KAT6B [9] = biological target: T4, QKF-KAT6B (Homo sapiens, UniProt Q8WYB5); test: Revised Acetyltransferase Biochemical Assay, KAT6B; conditions: 8 nM KAT6B, 1 μM AcCoA, 100 nM histone H3.1, 90 min
T4 construct: purchased SignalChem K315-381BG
Source text: KAT6B was obtained from SignalChem, catalog ID: K315-381BG

[10] = system: histone H3K23 acetylation (KATE mediated) in U2OS cells; test: Histone H3 Lysine 23 Acetylation Biomarker Assay (U2OS); format: cell-based; conditions: 96 well, 24 hours incubation
Summary of the method: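 U2OS cells were treated with compound for 24 h, then fixed and immunostained for H3K23ac with Hoechst nuclear counterstain. Per-nucleus Alexa647 intensity was quantified by high-content imaging and converted to % inhibition against DMSO and 10 μM reference-inhibitor controls. IC50 was derived from a four-parameter logistic fit.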

QKF-KAT6B [11] = biological target: T4, QKF-KAT6B; test: Acetyltransferase biochemical assay (AlphaScreen), KAT6B; conditions: Table 5 (QKF-KAT6B); 0.4 μM Acetyl coenzyme A, histone H3.1, 8 nM enzyme

T3 sequence (O95251 with tags, fused parts or gaps): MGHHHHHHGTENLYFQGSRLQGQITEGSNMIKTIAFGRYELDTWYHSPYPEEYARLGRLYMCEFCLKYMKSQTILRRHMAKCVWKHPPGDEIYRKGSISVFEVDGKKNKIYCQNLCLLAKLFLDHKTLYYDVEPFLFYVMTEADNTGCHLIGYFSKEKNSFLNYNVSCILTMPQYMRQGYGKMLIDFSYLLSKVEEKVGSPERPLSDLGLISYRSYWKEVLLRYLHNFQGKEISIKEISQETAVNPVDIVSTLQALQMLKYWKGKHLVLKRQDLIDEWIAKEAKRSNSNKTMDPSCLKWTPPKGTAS
T2 sequence (Q92794 507-778 A567V limits assumed): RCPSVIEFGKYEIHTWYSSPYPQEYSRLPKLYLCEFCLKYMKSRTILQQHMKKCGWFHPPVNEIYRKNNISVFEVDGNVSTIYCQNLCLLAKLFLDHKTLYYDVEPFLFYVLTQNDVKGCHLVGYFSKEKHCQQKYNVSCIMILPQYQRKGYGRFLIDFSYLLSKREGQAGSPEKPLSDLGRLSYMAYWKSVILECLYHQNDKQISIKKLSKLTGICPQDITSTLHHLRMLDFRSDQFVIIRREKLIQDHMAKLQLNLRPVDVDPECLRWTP
T4 sequence (Q8WYB5 whole entry): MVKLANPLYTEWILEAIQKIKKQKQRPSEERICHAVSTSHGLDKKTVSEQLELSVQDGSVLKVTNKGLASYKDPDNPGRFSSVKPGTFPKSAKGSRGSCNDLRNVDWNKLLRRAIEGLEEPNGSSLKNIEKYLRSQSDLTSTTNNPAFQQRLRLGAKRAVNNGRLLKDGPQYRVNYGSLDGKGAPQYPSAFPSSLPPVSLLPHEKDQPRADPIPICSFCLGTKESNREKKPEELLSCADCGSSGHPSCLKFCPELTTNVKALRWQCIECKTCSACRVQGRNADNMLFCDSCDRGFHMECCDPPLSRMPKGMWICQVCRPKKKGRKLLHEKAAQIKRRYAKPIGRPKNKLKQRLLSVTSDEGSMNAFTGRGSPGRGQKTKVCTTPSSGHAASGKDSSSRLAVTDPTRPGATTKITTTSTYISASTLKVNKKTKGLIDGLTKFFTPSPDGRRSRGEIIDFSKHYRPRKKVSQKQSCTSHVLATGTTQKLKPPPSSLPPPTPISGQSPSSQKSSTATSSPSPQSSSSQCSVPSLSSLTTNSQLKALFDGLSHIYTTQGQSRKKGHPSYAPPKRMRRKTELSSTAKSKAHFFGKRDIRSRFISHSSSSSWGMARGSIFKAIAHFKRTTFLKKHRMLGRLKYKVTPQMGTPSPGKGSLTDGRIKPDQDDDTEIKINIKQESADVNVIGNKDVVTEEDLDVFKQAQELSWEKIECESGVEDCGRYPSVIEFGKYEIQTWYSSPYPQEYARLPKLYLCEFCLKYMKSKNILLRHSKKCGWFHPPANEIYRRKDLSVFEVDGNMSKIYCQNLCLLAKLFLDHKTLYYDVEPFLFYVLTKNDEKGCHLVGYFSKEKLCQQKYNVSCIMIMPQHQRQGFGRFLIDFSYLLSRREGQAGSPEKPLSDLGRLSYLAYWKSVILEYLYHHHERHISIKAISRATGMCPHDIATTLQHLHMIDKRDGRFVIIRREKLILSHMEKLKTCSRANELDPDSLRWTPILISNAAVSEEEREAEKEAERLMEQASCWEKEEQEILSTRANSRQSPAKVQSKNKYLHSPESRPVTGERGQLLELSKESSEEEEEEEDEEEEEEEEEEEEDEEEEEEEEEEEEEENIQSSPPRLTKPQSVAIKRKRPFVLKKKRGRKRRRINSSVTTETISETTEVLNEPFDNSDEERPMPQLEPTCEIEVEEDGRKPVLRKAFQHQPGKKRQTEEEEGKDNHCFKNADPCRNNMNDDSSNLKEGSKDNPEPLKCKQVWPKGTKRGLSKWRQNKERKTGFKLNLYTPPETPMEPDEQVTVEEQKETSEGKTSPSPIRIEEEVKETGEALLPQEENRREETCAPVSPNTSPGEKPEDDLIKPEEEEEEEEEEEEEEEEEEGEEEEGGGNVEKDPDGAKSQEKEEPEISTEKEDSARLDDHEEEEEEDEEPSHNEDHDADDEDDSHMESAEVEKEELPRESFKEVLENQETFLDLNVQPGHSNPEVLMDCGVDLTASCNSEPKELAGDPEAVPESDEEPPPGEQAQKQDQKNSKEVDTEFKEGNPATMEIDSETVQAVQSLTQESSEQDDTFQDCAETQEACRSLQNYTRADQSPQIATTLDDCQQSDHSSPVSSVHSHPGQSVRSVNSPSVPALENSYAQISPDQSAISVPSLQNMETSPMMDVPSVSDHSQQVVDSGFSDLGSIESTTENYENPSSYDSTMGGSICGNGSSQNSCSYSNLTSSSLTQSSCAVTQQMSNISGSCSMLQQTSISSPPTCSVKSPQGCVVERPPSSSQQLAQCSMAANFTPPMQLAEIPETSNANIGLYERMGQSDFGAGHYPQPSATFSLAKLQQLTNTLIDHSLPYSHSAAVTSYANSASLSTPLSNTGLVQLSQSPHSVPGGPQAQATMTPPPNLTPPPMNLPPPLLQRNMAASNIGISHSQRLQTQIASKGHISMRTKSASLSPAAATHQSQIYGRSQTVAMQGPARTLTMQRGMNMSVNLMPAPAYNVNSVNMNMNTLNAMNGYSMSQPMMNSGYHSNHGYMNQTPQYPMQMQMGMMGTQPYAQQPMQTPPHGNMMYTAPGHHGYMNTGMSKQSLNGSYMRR
T1 sequence (Q92993 2-461 isoform Q92993-2): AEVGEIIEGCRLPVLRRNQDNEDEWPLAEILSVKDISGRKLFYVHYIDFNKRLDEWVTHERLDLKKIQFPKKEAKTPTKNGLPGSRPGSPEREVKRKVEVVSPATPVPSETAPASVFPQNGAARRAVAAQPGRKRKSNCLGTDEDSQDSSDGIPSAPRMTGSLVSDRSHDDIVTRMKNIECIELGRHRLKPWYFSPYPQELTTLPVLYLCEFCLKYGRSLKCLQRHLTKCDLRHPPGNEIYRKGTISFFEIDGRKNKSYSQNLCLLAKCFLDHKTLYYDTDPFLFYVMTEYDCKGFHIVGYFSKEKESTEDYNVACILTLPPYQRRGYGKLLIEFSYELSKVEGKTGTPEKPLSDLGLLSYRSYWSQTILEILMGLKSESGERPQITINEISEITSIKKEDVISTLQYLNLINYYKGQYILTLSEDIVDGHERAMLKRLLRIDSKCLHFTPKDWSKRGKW

Row | pIC50 (TIP60-KAT5 [1]) | pIC50 (MOZ-KAT6A [2]) | pIC50 (HBO-KAT7 [3]) | pIC50 [4] | pIC50 [5] | pIC50 (MOZ-KAT6A [6]) | pIC50 (HBO-KAT7 [7]) | pIC50 (TIP60-KAT5 [8]) | pIC50 (QKF-KAT6B [9]) | pIC50 [10] | pIC50 (QKF-KAT6B [11]) | pIC50 ([4]; Homo sapiens, 24 h) | pIC50 ([5]; Homo sapiens, 24 h) | pIC50 ([10]; Homo sapiens, U2OS, 24 h) | SMILES
1 | 7.33 | 7.59 | 6.80 | 6.37 | 6.35 | 8.70 | 7.44 | 7.89 | 7.72 | 7.80 |  |  |  |  | O=C(NCC(c1ccccc1)c1ncco1)C1=Nc2ccc(I)cc2S(=O)(=O)N1 (single isomer, unassigned) [Example 146, 7-iodo-N-(2-(oxazol-2-yl)-2-phenylethyl)-2H-benzo[e][1,2,4]thiadiazine-3-carboxamide 1,1-dioxide]
2 | 6.35 | 6.19 | 6.78 | 6.71 | 5.84 | 7.54 | 7.24 | 6.88 | 6.51 | 6.32 |  |  |  |  | O=C(NCC(c1ccccc1)c1ncco1)C1=Nc2ccc(I)cc2S(=O)(=O)N1 (single isomer, unassigned) [Example 147]
3 | < 3.90 | 5.51 |  |  |  |  |  |  |  |  | 6.57 |  |  |  | Cn1cc(-c2ccc3c(c2)S(=O)(=O)NC(C(=O)NCC(c2ccccc2)c2ccccc2)=N3)cn1 [Example 18, N-(2,2-diphenylethyl)-7-(1-methyl-1H-pyrazol-4-yl)-2H-benzo[e][1,2,4]thiadiazine-3-carboxamide 1,1-dioxide]
4 | 7.21 | 7.75 | 7.03 |  |  | 8.30 | 7.23 | 7.49 | 7.55 |  |  | 7.06 | 6.00 | 7.46 | O=C(NCC(c1ccccc1)c1ncco1)C1=Nc2ccc(I)cc2S(=O)(=O)N1 (stereo not drawn) [Example 41, 7-iodo-N-(2-(oxazol-2-yl)-2-phenylethyl)-2H-benzo[e][1,2,4]thiadiazine-3-carboxamide 1,1-dioxide]
